Here are results for one compound from BindingDB's records for doi:10.1021/jm991119p (The Institute of Cancer Research, 2000).

Each structure is given as a SMILES string.

The assay addresses reduced folate carrier 1 (Mus musculus). Description: Affinity towards RFC (Reduced folate carrier) measured by the inhibition of [3H]MTX uptake.

Usually Ki stands for the dissociation constant of the complex between target and ligand, obtained from inhibition or displacement. High values mean lower affinity, low ones higher affinity.

In turn, `C#CCN(Cc1cc2c(=O)[nH]c(C)nc2cc1C)c1ccc(C(=O)N[C@@H](CCC(=O)N[C@H](CCC(=O)O)C(=O)O)C(=O)O)cc1` registered an inhibitory constant (Ki) of 200 µM.
